Data on seven compounds can be found in ChEMBL document CHEMBL1158011, “Five new flavone 5-O-glycosides from Lethedon tannaensis: lethedosides and lethediosides” (J Nat Prod, 1999).

In brackets after ≈: the same amount, converted by molar mass.

The assay concerns KB. The experiment in a line: Cytotoxicity against human KB cells after 72 hrs by neutral red assay. The class given is functional, cell-based.
As usually defined, the IC50 is the concentration at which inhibition is half-maximal. Consider `COc1cc(O[C@@H]2O[C@H](CO)[C@@H](O)[C@H](O)[C@H]2O)c2c(=O)cc(-c3cc(O)c(OC)c(OC)c3)oc2c1` [LETHEDOSIDE C], for which the IC50 was 43 µg/mL (≈ 84.9 µM). The compound `COc1ccc(-c2cc(=O)c3c(O[C@@H]4O[C@H](CO[C@@H]5OC[C@@H](O)[C@H](O)[C@H]5O)[C@@H](O)[C@H](O)[C@H]4O)cc(OC)cc3o2)cc1` gave an IC50 of more than 100 µg/mL.

The compound `COc1cc(O[C@@H]2O[C@H](CO)[C@@H](O)[C@H](O)[C@H]2O)c2c(=O)cc(-c3ccc(OC)c(OC)c3)oc2c1` [LETHEDOSIDE A] showed a 50% inhibitory concentration (IC50) of more than 100 µg/mL. The same measure for `COc1cc(O[C@@H]2O[C@H](CO[C@@H]3OC[C@@H](O)[C@H](O)[C@H]3O)[C@@H](O)[C@H](O)[C@H]2O)c2c(=O)cc(-c3cc(OC)c(OC)c(OC)c3)oc2c1` [LETHEDIOSIDE B]: 32 µg/mL (≈ 49 µM). The same measure for `COc1cc(O[C@@H]2O[C@H](CO[C@@H]3OC[C@@H](O)[C@H](O)[C@H]3O)[C@@H](O)[C@H](O)[C@H]2O)c2c(=O)cc(-c3ccc(OC)c(OC)c3)oc2c1` [LETHEDIOSIDE A]: more than 100 µg/mL; for `COc1cc(O[C@@H]2O[C@H](CO)[C@@H](O)[C@H](O)[C@H]2O)c2c(=O)cc(-c3cc(OC)c(OC)c(OC)c3)oc2c1` [LETHEDOSIDE B]: 37 µg/mL (≈ 71.1 µM). Turning to `COc1cc(O)c2c(=O)cc(-c3ccc(O)c(OC)c3)oc2c1` [VELUTIN], the 50% inhibitory concentration (IC50) was 1.5 µg/mL (≈ 4.77 µM).
